Measurements from patent EP0330353A1, “Tetrazole excitatory amino acid receptor antagonists” (ELI LILLY AND COMPANY, priority 1988, dated 1989).
Read-outs that look alike come from different tables or passages of the source.

Key:
[1] = tested on: NMDA; experiment: In vivo NMDA-induced lethality in mice; set-up: species or system Male Charles River CF1 mice; settings: for minimal effective dose: Mus musculus, 20 min, read-out: MED
Method: A typical receptor substance is characterized by N-methyl-D-aspartic acid (NMDA).
Male Charles River CF1 mice held in the laboratory for a minimum of three days were housed, 12 per cage, on sawdust bedding in clear plastic boxes with wire mesh lids. Animals were allowed full access to feed and water prior to testing.
Unless otherwise specified, all test compounds were formulated in dimethylsulfoxide (DMSO) and diluted to a 5% DMSO/sterile water solution by volume. Dosing began at 160 mg/kg. If any significant activity was detected, the test drug dose was divided in half until no more activity was detected. All test compounds were administered using the intraperitoneal injection (i.p.) route at a volume of 0.01 cc/gm.
Five mice were taken from the plastic cages, dosed with the test compound and placed individually in clear plastic observation cages. After a 30 minute drug absorption period, the mice were injected intra-peritoneally with 200 mg/kg of NMDA. This dose of NMDA produces death in more than 95% of control-treated animals. Twenty minutes after the NMDA injection the animals were scored as dead or alive. Data are reported as the minimum effective dose (MED) to block NMDA-induced lethality. Protection from lethality is met by the survival of at least three of the five animals. Data for AP5 and AP7, known excitatory amino acid antagonists, are provided for comparison.

[2] = tested on: NMDA receptors; experiment: NMDA-induced seizures in neonatal rats; assay type: in vivo, neonatal (7 to 8 days old) Sprague-Dawley rats; settings: lowest dose preventing NMDA-induced seizures in at least 3 of 5 neonatal rats; test drug i.p. in saline 30 min before NMDA 20 mg/kg i.p.; observed 30 min
Method: In another experiment, male or female neonatal (7 to 8 days old) Sprague-Dawley rats were removed from the dam and placed in plastic observation chambers that were maintained at 30-32°C. All test drugs were dissolved in normal saline. Activation of NMDA receptors in these rats leads to a readily observable generalized motor seizure in over 95% of the animals.
Animals were injected by the intraperitoneal route with the test drug (1 ml/100 g of body weight) and observed for a 30 minute period for seizure (potential agonist) activity. They were then injected with NMDA at a dose of 20 mg/kg body weight i.p. to test for antagonist activity. […] Generally, five animals were used at each dose of compound. […] The minimum effective dose was the lowest test dose which prevented NMDA-induced seizures in at least three out of five animals.

[3] = minimum effective dose to block NMDA-induced lethality (survival of at least 3 of 5 mice), test compound i.p. 30 min before 200 mg/kg NMDA i.p., scored 20 min after NMDA

Compound	minimal effective dose [1, 3]	also measured
O=C(O)[C@H]1C[C@@H](CCc2nn[nH]n2)CCN1 (racemic) [Example 1, cis-(±)-4-[2-(1(2)H-Tetrazol-5-yl)ethyl]-2-piperidinecarboxylic acid]	20 mg/kg	–
O=C(O)[C@H]1C[C@@H](CCCc2nn[nH]n2)CCN1 (racemic) [Example 2, cis-(±)-4-[3-(1(2)H-Tetrazol-5-yl)propyl]-2-piperidinecarboxylic acid]	10 mg/kg	–
O=C(O)[C@H]1C[C@@H](Cc2nn[nH]n2)CCN1 (racemic) [Example 3, cis-(±)-4-[(1(2)H-Tetrazol-5-yl)methyl]-2-piperidinecarboxylic acid]	10 mg/kg	–
O=C(O)C1C/C(=C\c2nn[nH]n2)CCN1 (racemic) [Example 4, Z-(±)-4-[(1(2)H-Tetrazol-5-yl)methylidene]-2-piperidinecarboxylic acid]	20 mg/kg	–
CCCCOC(=O)[C@H]1C[C@@H](Cc2nn[nH]n2)CCN1 (racemic) [Example 5, Butyl cis-(±)-4-[(1(2)H-tetrazol-5-yl)methyl]-2-piperidinecarboxylate]	160 mg/kg	–
CCOC(=O)C1CC(Cc2nn[nH]n2)CCN1 (racemic) [Example 6, Ethyl cis-(±)-4-[(1(2)H-tetrazol-5-yl)methyl]-2-piperidinecarboxylate]	–	MED [2]: 200 mg/kg
NC(CCCP(=O)(O)O)C(=O)O (stereo not drawn) [AP5, reference compound]	80 mg/kg	–
NC(CCCCCP(=O)(O)O)C(=O)O (stereo not drawn) [AP7, reference compound]	–	minimal effective dose [1]: 160 mg/kg
cis-(±)-4-[(1(2)-Methyl-1(2)H-tetrazol-5-yl)methyl]-2-piperidinecarboxylic acid [Example 7]	–	MED [1, 3]: 160 mg/kg
